Consider 5 compounds from patent US20190169140A1, “IDO1 INHIBITOR AND PREPARATION METHOD AND APPLICATION THEREOF” (SHANDONG LUYE PHARMACEUTICAL CO., LTD., priority 2016, published 2019).

Values after ≈ are worked out from the molar mass of the structure shown. Where two headings read alike, the source gives them in different places.

Data set [1] can be described thus: Measurement of thermodynamic solubility. In kind it is physicochemical. The conditions noted are these: aqueous buffer, thermodynamic from solid, room temperature. The protocol: II. Measurement of Thermodynamic Solubility
1. Solutions for Thermodynamic Solubility
Buffer A (pH 2.0): 50 mM phosphate buffer, with a pH value of 2.0.
Buffer B (pH 7.4): 50 mM phosphate buffer, with a pH value of 7.4.
50% acetonitrile solution and 50% buffer (A, B) were mixed together to obtain a diluent. 10 mM (20 μL/compound) stock solution was added to acetonitrile (480 μL/compound), and mixed with the buffer (A, B) (500 μL/compound) to obtain 200 μM UV detection standard solution. The 200 μM UV detection standard solution was diluted with the diluent 10 times or 200 times the amount of the standard solution, so as to acquire 20 μM or 1 μM UV standard solution. 1, 20, and 200 μM UV standard solutions were taken as standard samples for thermodynamic solubility test.
No less than 2 mg of a sample powder was weighed and placed in a Whatman miniuniprep vial. If it was required to test the thermodynamic solubility of the sample in multiple buffers (A, B), an independent vial was demanded for each test. 450 μL of the buffer (A, B) was respectively added to each Whatman miniuniprep vial. After the buffer was added, a piston cover of the Whatman miniuniprep functioning to filter was put on and pressed above a liquid surface, such that a filter screen was in contact with the buffer (A, B) during the shaking. The solubility sample was shaken in a vortex manner for 1 minute, and phenomenon of the solution was recorded. The sample was shaken at 600 rpm at a room temperature (approximately 22˜25° C.) for 24 hours. The filtering cover of Whatman Miniunipreps was pressed to a bottom, to obtain a filtrate of the sample solubility solution. All sample vials should be recorded for insoluble substances before and after the filtration and leakage phenomenon thereof. The buffer (A, B) was 50-fold diluted to obtain a sample diluent.
3 UV standard solutions, from low concentration to high concentration, were injected into HPLC, and then the diluent and the supernatant of the compound to be tested were injected. The sample to be tested was in duplicate. Integration was carried out for UV chromatographic peaks. A standard curve was established by simulation and the thermodynamic solubility of the sample was calculated. HPLC conditions were as follows.

The nature of data set [2]: Test for permeability across Caco2. It is filed as in vitro ADME. Conditions: human, Caco-2. The protocol:
2. Test for Permeability Across Caco2
A sample for test was dissolved in dimethyl sulfoxide (DMSO) or other suitable solvents, to be prepared into 10 mM stock solution. A suitable internal standard
Fenoterol, propranolol, and digoxin acted as low-permeability control, high-permeability control, and P-gp (P-glycoprotein) substrate, respectively, in the present research. The stock solutions of these compounds were prepared with DMSO, stocked at 2-8° C., and valid for use within 3 months.
In the present project, a Hank's balanced salt buffer containing 10 mM HEPES was used as a transport buffer.
Caco-2 cells were cultivated using MEM culture media (Minimum Essential Media), with a culture condition of 37±1° C., 5% CO2, and saturated relative humidity. Afterwards, the cells were inoculated into a BD Transwell-96-well plate, with an inoculation density of 1×10^5 cells/cm^2, then the cells were placed in a carbon dioxide incubator to be incubated for 21-28 days, and then used for a transport experiment.
The sample for test and digoxin with donation concentration of 2 μM were administered in two directions (direction A-B and direction B-A), each in duplicate. Fenoterol and propranolol each with test concentration of 2 μM were administered in a single direction (direction A-B), each in duplicate.
A solution to be used was placed in a 37±1° C. water bath kettle to be pre-incubated for 30 minutes. The donor solution and the receiver solution were respectively added to corresponding sides of well of cell plate (to each apical sides and each basolateral sides, 75 μL and 250 μL of samples were added respectively), and experiment of bidirectional transport was started. After addition of the samples, the cell plate was placed in a 37±1° C., 5% CO2 incubator with saturated relative humidity to be incubated for 120 minutes.
The samples were all centrifuged at 3220 g for 10 minutes after being shaken in a vortex manner. A suitable volume of a supernatant was transferred to a sample analyzing plate. If analysis was not carried out immediately after the plate was sealed, the plate was stored at 2-8° C. The analysis was carried out through a method of LC/MS/MS.
The sample for test, the fenoterol control, propranolol control, and digoxin were analyzed in a semiquantitative manner, and specific values of analytes to a peak area of the internal standard were taken as concentration of the controls.
(Caco-2 monolayers are a common model of the intestinal barrier.)

Another data set has as its target T1, CYP2C9 (Homo sapiens, UniProt P11712).
T1 construct: tissue Corning Inc. or XenoTech, LLC. or other suppliers; host or cells: mixed human liver microsomes
The data set is described as follows: Inhibition on human liver microsome CYP2C9. The conditions noted are these: human liver microsomes; for IC50: 5-in-1 probe substrate. It is filed as in vitro ADME. The protocol:
The research project aimed at evaluating inhibitory ability of a sample for test on human liver microsome cytochrome P450 isozymes (CYP1A2, CYP2C9, CYP2C19, CYP2D6, and CYP3A4) with use of a 5-in-1 probe substrate for CYP isozymes.
Mixed human liver microsomes (HLM) were purchased from Corning Inc. (Steuben, N.Y., USA) or XenoTech, LLC. (Lenexa, Kans., USA) or other suppliers, and stored in a condition below −70° C. before use.
Diluted working solutions of the sample for test in serial concentrations were added to an incubation system containing the human liver microsomes, probe substrate, and accessory factors of a cycling system, and a control containing no sample for test but a solvent was taken as a control for enzymatic activity (100%). Concentration of metabolites generated by the probe substrate in the sample was measured with a method of liquid chromatography-tandem mass spectrometry (LC-MS/MS). Nonlinear regression analysis of mean percentage activity vs concentration of the sample for test was carried out using SigmaPlot (V.11). An IC^50 value was calculated through a three-parameter or four-parameter inflection logarithmic equation.
For orientation: Microsomes from liver hold many membrane-bound enzymes, among them those of drug oxidation.

A short description of data set [3]: Liver microsome stability, rat. The conditions noted are these: rat liver microsomes; for CLint scaled: SD, read-out: Intrinsic clearance; for Remaining % (60 min): 37° C. It is filed as in vitro ADME, SD rats. The protocol: The purpose of research in the present experiment is assessing phase I metabolic stability of the sample for test in CD-1 mice, SD rats, and human liver microsomes.
The animals and human liver microsomes used in this test system were purchased from BD Gentest, Xenotech, Corning or BioreclamationIVT, and stored in a refrigerator at −80° C. before use.
The sample for test and control were incubated together with the microsomes under a condition of 37° C. for 60 minutes, and a cold acetonitrile solution (or other organic solvents) containing an internal standard substance was added at a designated time point to terminate the reaction. After centrifugation, a resultant supernatant was assayed in a semiquantitative manner through liquid chromatography tandem mass spectrometry (LC/MS/MS). Software Analyst (AB Sciex, Framingham, Mass., USA) was used for processing retention time of analyte and internal standard, and achieving chromatogram collection, and chromatogram integration
An in vitro elimination rate constant ke of the sample was obtained by converting a ratio of the sample to a peak area of the internal standard to remaining percentage, to calculate an in vitro elimination rate and half-life of the sample for test.

Where [4] appears, read: 50 mM phosphate buffer pH 2.0, 24 hours, read-out: thermodynamic solubility (pH: 2.0).
[5] abbreviates: 50 mM phosphate buffer pH 7.4, 24 hours, read-out: thermodynamic solubility (pH: 7.4).

T1 sequence (P11712 whole entry): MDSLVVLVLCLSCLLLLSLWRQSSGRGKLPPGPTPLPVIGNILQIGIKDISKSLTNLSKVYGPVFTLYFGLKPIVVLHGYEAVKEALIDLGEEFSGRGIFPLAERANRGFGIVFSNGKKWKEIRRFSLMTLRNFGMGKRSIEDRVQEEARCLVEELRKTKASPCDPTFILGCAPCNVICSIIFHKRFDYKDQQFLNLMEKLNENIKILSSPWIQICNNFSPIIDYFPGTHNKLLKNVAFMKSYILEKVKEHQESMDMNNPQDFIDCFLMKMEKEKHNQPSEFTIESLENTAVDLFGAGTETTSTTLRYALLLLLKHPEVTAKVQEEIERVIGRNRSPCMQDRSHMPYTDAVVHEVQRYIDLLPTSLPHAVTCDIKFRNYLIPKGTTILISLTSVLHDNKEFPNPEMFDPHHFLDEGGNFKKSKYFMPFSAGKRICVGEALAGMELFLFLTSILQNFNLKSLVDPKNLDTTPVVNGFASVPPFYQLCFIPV

The thermodynamic solubility is solubility found after equilibrating the solid with the medium. As to `NS(=O)(=O)NCCOc1nonc1/C(=N/O)Nc1ccc(F)c(Br)c1` [Compound 0015], the values for the solubility (thermodynamic) at 24 h in data set [1] (setting [4]) and in data set [1] (setting [5]) were 138 µM (≈ 60.6 µg/mL) and 298 µM (≈ 131 µg/mL), respectively.

What is called Papp A→B is how fast a substance crosses the layer from the apical side. Low values mean slow passage, high ones fast passage. Usually Papp B→A stands for the apparent permeability from the basolateral to the apical side of a cell layer. Take `NS(=O)(=O)NCCSc1nonc1/C(=N/O)Nc1ccc(F)c(Br)c1` [Compound 0117]: in data set [2], the Papp A→B at 120 min, 2 µM turned out to be 2.97 ×10⁻⁶ cm/s and the Papp B→A at 120 min, 2 µM worked out at 12.2 ×10⁻⁶ cm/s. Moreover, in data set [1] (setting [4]), the thermodynamic solubility at 24 h was found to be 2620 µM (≈ 1190 µg/mL). Moreover, in data set [1] (setting [5]), the solubility (thermodynamic) at 24 h is 2610 µM (≈ 1190 µg/mL).

For orientation: IC50 means the concentration at which inhibition is half-maximal. For the compound `CC(=O)NCCSc1nonc1/C(=N/O)Nc1ccc(F)c(Br)c1` [Compound 0227], it took 15.9 µM to reach half-maximal inhibition at CYP2C9 (IC50). Also, in data set [3], the CLint scaled was 91.9 mL/min/kg, the “metabolic stability in words” value was “metabolized quickly” and the “Remaining % (60 min)” value stood at 21.6%.

In data set [2], `NC(=O)NCCSc1nonc1/C(=N/O)Nc1ccc(F)c(Br)c1` [Compound 0231] showed a Papp A→B at 120 min, 2 µM of 2.58 ×10⁻⁶ cm/s and a Papp B→A at 120 min, 2 µM of 20.1 ×10⁻⁶ cm/s. For the same compound, at CYP2C9, the “inhibiting effect on CYP2C9 in words” value is recorded as “relatively weak effect” and the IC50 was over 50 µM. In addition, in data set [3], the CLint scaled was determined as 23.7 mL/min/kg, the “metabolic stability in words” value is “metabolized in a relatively steady manner” and the “Remaining % (60 min)” value was 64.8%. In addition, in data set [1] (setting [4]), the thermodynamic solubility at 24 h turned out to be 155 µM (≈ 65 µg/mL). Moreover, in data set [1] (setting [5]), the solubility (thermodynamic) at 24 h came to 125 µM (≈ 52.4 µg/mL).

For `NS(=O)(=O)NCCNc1nonc1C(=NO)Nc1ccc(F)c(Br)c1` [Compound 360, INCB024360, reference compound], the Papp A→B at 120 min, 2 µM in data set [2] amounted to 0.39 ×10⁻⁶ cm/s. Besides, the Papp B→A at 120 min, 2 µM in data set [2] was determined as 19.6 ×10⁻⁶ cm/s. Further, the solubility (thermodynamic) at 24 h in data set [1] (setting [4]) amounted to 65 µM (≈ 28.5 µg/mL); in data set [1] (setting [5]), 160 µM (≈ 70.1 µg/mL).
